Results published in patent US20110086103A1, “NOVEL MANDELATE SALT OF FESOTERODINE” (ACTAVIS GROUP PTC EHF, priority 2008, published 2011).
Where a name gives a salt, the structure may show the parent alone.

How the values were obtained:
[1] = Moisture absorption during filtration of the salt; assay type: physicochemical
[2] = Stability of solid state form (polymorphic stability by P-XRD on storage); assay type: physicochemical; conditions: stored 3 months in self-sealing LDPE bag, normal atmospheric conditions, room temperature
Experimental: The X-Ray powder diffraction was measured by an X-ray powder Diffractometer equipped with CuKα-radiations (40 kV, 40 mA) in wide-angle X-ray Diffractometer of BRUKER axs, D8 ADVANCE. The sample was analyzed using the following instrument parameters: measuring range 3-45° 2-theta; step width=0.01579°; and measuring time per step=0.11 sec. Fesoterodine mandelate was prepared according to the process exemplified in Example 1 and was packed in a self-sealing low-density polyethylene (LDPE) bag. The material was stored for 3 months under normal atmospheric conditions at room temperature and checked for polymorphic stability.

moisture absorption [1] | polymorphic stability (maintenance of the original P-XRD pattern) [2] | SMILES
does not absorb moisture | retain its polymorphic form | CC(C)C(=O)Oc1ccc(CO)cc1[C@H](CCN(C(C)C)C(C)C)c1ccccc1.O=C(O)C(O)c1ccccc1 [Fesoterodine mandelate, mandelate salt of 2-[(1R)-3-[bis(1-methylethyl)amino]-1-phenylpropyl]-4-hydroxymethylphenyl isobutyrate]
absorbs moisture |  | CC(C)C(=O)Oc1ccc(CO)cc1[C@H](CCN(C(C)C)C(C)C)c1ccccc1 [fumarate salt, fesoterodine fumarate, reference compound]
